# Laboratory results reported in US10364245B2 (CHIESI FARMACEUTICI S.p.A., priority 2017, dated 2019).
# Biological target: T1, p38 alpha (Homo sapiens, UniProt Q16539)
# T1 construct: purchased Invitrogen PV3304
# Assay: P38 alpha enzyme inhibition assay (Alphascreen kinase activity assay)
# Assay type: biochemical
# Conditions: 100 pM p38 alpha, 2 hours preincubation at 25° C., 250 μM ATP, ATF-2 fusion protein; read-out: p38α inhibition
# Protocol: P38 Alpha Enzyme Inhibition Assay
# The inhibitory activity of compounds was determined using an Alphascreen® (Perkin Elmer) based kinase activity assay. Kinase reactions consisted of 25 mM HEPES pH 7.5, 10 mM MgCl2, 100 μM Na3VO4, 2 mM DTT, 0.05 mg/ml Tween 20, 100 pM p38 alpha (Invitrogen, PV3304), 1% DMSO and 0.3 μg/ml ATF-2 fusion protein (New England Biolabs, 9224). Compounds were incubated under these conditions for 2 hours, at 25° C., prior to the initiation of the kinase activity by the addition of the 250 μM ATP. Reaction volumes were 20 μL. After 1 hr at 25° C. reactions were stopped by the adding 10 μL of 25 mM HEPES pH 7.5 containing 62.5 mM EDTA, 0.05% Triton X-100, 10% BSA and 0.83 ng/uL anti-phospho-ATF2 antibody (Abcam, ab28812). Detection was performed by measuring luminescence following the addition of Alphascreen Donor beads (Perkin Elmer 6765300) and Protein A Alphascreen Acceptor beads (Perkin Elmer 6760137), both at a final concentration of 20 ug/ml. IC50 values were determined from concentration-response curves.
# T1 sequence (Q16539 whole entry): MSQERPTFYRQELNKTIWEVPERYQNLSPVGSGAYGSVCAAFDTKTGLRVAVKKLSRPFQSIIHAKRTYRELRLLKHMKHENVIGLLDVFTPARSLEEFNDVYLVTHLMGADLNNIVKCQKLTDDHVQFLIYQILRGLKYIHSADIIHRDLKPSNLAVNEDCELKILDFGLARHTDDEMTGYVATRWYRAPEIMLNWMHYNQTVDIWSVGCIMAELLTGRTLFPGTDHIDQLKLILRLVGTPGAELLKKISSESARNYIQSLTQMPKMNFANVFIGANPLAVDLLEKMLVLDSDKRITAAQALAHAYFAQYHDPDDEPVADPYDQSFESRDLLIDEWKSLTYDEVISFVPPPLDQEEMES
row,IC50 [nM],SMILES
1,1 to 10,"COCC(C)(C)c1nnc2ccc(O[C@@H]3CC[C@H](NC(=O)Nc4cc(C(C)(C)C)nc(C(=O)NCC5(N(C)C)CCOCC5)n4)c4ccccc43)cn12 [Example 150, 4-(tert-butyl)-N-((4-(dimethylamino)-tetrahydro-2H-pyran-4-yl)methyl)-6-(3-((1S,4R)-4-((3-(1-methoxy-2-methylpropan-2-yl)-[1,2,4]triazolo[4,3-a]pyridin-6-yl)oxy)-1,2,3,4-tetrahydronaphthalen-1-yl)ureido)pyrimidine-2-carboxamide]"
2,1 to 10,"COCC(C)(C)c1nnc2ccc(O[C@@H]3CC[C@H](NC(=O)Nc4cc(C(C)(C)C)nc(C(=O)NCC5(N(C)C)CCCCC5)n4)c4ccccc43)cn12 [Example 153, 4-(tert-butyl)-N-((1-(dimethylamino)cyclohexyl)methyl)-6-(3-((1S,4R)-4-((3-(1-methoxy-2-methylpropan-2-yl)-[1,2,4]triazolo[4,3-a]pyridin-6-yl)oxy)-1,2,3,4-tetrahydronaphthalen-1-yl)ureido)pyrimidine-2-carboxamide]"
3,1 to 10,"CCN(C)C(C)(C)CNC(=O)c1nc(NC(=O)N[C@H]2CC[C@@H](Oc3ccc4nnc(C(C)(C)OC)n4c3)c3ccccc32)cc(C(C)(C)C)n1 [Example 156, 4-(tert-butyl)-N-(2-(ethyl(methyl)amino)-2-methylpropyl)-6-(3-((1S,4R)-4-((3-(2-methoxypropan-2-yl)-[1,2,4]triazolo[4,3-a]pyridin-6-yl)oxy)-1,2,3,4-tetrahydronaphthalen-1-yl)ureido)pyrimidine-2-carboxamide]"
4,1 to 10,"COC(C)(C)c1nnc2ccc(O[C@@H]3CC[C@H](NC(=O)Nc4cc(C(C)(C)C)nc(C(=O)NCC(C)(C)N5CCN(C)CC5)n4)c4ccccc43)cn12 [Example 157, 4-(tert-butyl)-6-(3-((1S,4R)-4-((3-(2-methoxypropan-2-yl)-[1,2,4]triazolo[4,3-a]pyridin-6-yl)oxy)-1,2,3,4-tetrahydronaphthalen-1-yl)ureido)-N-(2-methyl-2-(4-methylpiperazin-1-yl)propyl)pyrimidine-2-carboxamide]"
5,1 to 10,"CN(C)C1(CNC(=O)c2nc(NC(=O)N[C@H]3CC[C@@H](Oc4ccc5nnc(C(C)(C)C)n5c4)c4ccccc43)cc(C(C)(C)C)n2)CCOCC1 [Example 160, 4-(tert-butyl)-6-(3-((1S,4R)-4-((3-(tert-butyl)-[1,2,4]triazolo[4,3-a]pyridm-6-yl)oxy)-1,2,3,4-tetrahydronaphthalen-1-yl)ureido)-N-((4-(dimethylamino)-tetrahydro-2H-pyran-4-yl)methyl)pyrimidine-2-carboxamide]"
6,1 to 10,"CN(C)C1(CNC(=O)c2nc(NC(=O)N[C@H]3CC[C@@H](Oc4ccc5nnc(C(C)(C)C)n5c4)c4ccccc43)cc(C(C)(C)C)n2)CCCCC1 [Example 161, 4-(tert-butyl)-6-(3-((1S,4R)-4-((3-(tert-butyl)-[1,2,4]-triazolo[4,3-a]pyridin-6-yl)oxy)-1,2,3,4-tetrahydronaphthalen-1-yl)ureido)-N-((1-(dimethylamino)-cyclohexyl)methyl)pyrimidine-2-carboxamide]"
7,1 to 10,"CN(C)C1(CNC(=O)c2nc(NC(=O)N[C@H]3CC[C@@H](Oc4ccc5nnc(C(C)(C)C)n5c4)c4ccccc43)cc(C(C)(C)C)n2)CCC1 [Example 162, 4-(tert-butyl)-6-(3-((1S,4R)-4-((3-(tert-butyl)-[1,2,4]triazolo[4,3-a]pyridin-6-yl)oxy)-1,2,3,4-tetrahydronaphthalen-1-yl)ureido)-N-((1-(dimethylamino)-cyclobutyl)methyl)pyrimidine-2-carboxamide]"
8,1 to 10,"CN(C)C1(CNC(=O)c2nc(NC(=O)N[C@H]3CC[C@@H](Oc4ccc5nnc(C(C)(C)C)n5c4)c4ccccc43)cc(C(C)(C)C)n2)CCCC1 [Example 163, 4-(tert-butyl)-6-(3-((1S,4R)-4-((3-(tert-butyl)-[1,2,4]-triazolo[4,3-a]pyridin-6-yl)oxy)-1,2,3,4-tetrahydronaphthalen-1-yl)ureido)-N-((1-(dimethylamino)-cyclopentyl)methyl)-pyrimidine-2-carboxamide]"
9,1 to 10,"CN(CCNC(=O)c1nc(NC(=O)N[C@H]2CC[C@@H](Oc3ccc4nnc(C(C)(C)C)n4c3)c3ccccc32)cc(C(C)(C)C)n1)C1CC1 [Example 164, 4-(tert-butyl)-6-(3-((1S,4R)-4-((3-(tert-butyl)-[1,2,4]triazolo[4,3-a]pyridin-6-yl)oxy)-1,2,3,4-tetrahydronaphthalen-1-yl)ureido)-N-(2-(cyclopropyl(methyl)-amino)ethyl)pyrimidine-2-carboxamide]"
10,1 to 10,"CN(C)[C@H]1CCCC[C@@H]1NC(=O)c1nc(NC(=O)N[C@H]2CC[C@@H](Oc3ccc4nnc(C(C)(C)C)n4c3)c3ccccc32)cc(C(C)(C)C)n1 [Example 165, 4-(tert-butyl)-6-(3-((1S,4R)-4-((3-(tert-butyl)-[1,2,4]triazolo[4,3-a]pyridin-6-yl)oxy)-1,2,3,4-tetrahydronaphthalen-1-yl)ureido)-N-((1S,2S)-2-(dimethylamino)-cyclohexyl)pyrimidine-2-carboxamide]"
11,1 to 10,"COC1CN(CCNC(=O)c2nc(NC(=O)N[C@H]3CC[C@@H](Oc4ccc5nnc(C(C)(C)OC)n5c4)c4ccccc43)cc(C(C)(C)C)n2)C1 [Example 167, 4-(tert-butyl)-N-(2-(3-methoxyazetidin-1-yl)ethyl)-6-(3-((1S,4R)-4-((3-(2-methoxypropan-2-yl)-[1,2,4]triazolo[4,3-a]pyridin-6-yl)oxy)-1,2,3,4-tetrahydronaphthalen-1-yl)ureido)pyrimidine-2-carboxamide]"
12,1 to 10,"CCC(CC)(CNC(=O)c1nc(NC(=O)N[C@H]2CC[C@@H](Oc3ccc4nnc(C(C)(C)C)n4c3)c3ccccc32)cc(C(C)(C)C)n1)N(C)C [Example 168, 4-(tert-butyl)-6-(3-((1S,4R)-4-((3-(tert-butyl)-[1,2,4]triazolo[4,3-a]pyridin-6-yl)oxy)-1,2,3,4-tetrahydronaphthalen-1-yl)ureido)-N-(2-(dimethylamino)-2-ethylbutyl)pyrimidine-2-carboxamide]"
13,1 to 10,"COC1CN(C(C)(C)CNC(=O)c2nc(NC(=O)N[C@H]3CC[C@@H](Oc4ccc5nnc(C(C)(C)C)n5c4)c4ccccc43)cc(C(C)(C)C)n2)C1 [Example 170, 4-(tert-butyl)-6-(3-((1S,4R)-4-((3-(tert-butyl)-[1,2,4]triazolo[4,3-a]pyridin-6-yl)oxy)-1,2,3,4-tetrahydronaphthalen-1-yl)ureido)-N-(2-(3-methoxyazetidin-1-yl)-2-methylpropyl)pyrimidine-2-carboxamide]"
14,1 to 10,"COC1CN(C(C)(C)CNC(=O)c2nc(NC(=O)N[C@H]3CC[C@@H](Oc4ccc5nnc(C(C)(C)OC)n5c4)c4ccccc43)cc(C(C)(C)C)n2)C1 [Example 172, 4-(tert-butyl)-N-(2-(3-methoxyazetidin-1-yl)-2-rnethylpropyl)-6-(3-((1S,4R)-4-((3-(2-methoxypropan-2-yl)-[1,2,4]triazolo[4,3-a]pyridin-6-yl)oxy)-1,2,3,4-tetrahydronaphthalen-1-yl)ureido)pyrimidine-2-carboxamide]"
